Test results taken from patent US20250152580A1, “METHODS FOR TREATING IMMUNE DISEASES” (Ascentage Pharma (Suzhou) co., Ltd., priority 2022, published 2025).
Entries after “also recorded” stand apart in the source; their conditions may differ.

How the values were obtained:
OVA induced asthma model = assay: OVA (ovalbumin) induced asthma model in Balb/cA mice; type: in vivo; details: for pathological score in lung tissues (H&E): vehicle 4.08±0.23
Description: Ovalbumin (OVA)-sensitized and challenged BALB/c mice are widely used as an asthma model and are characterized by high levels of serum IgE, airway inflammation, epithelial hypertrophy, goblet cell hyperplasia, and AHR, which are similar to the features observed in human allergic asthma.
Female Balb/cA mice (8 weeks old) were obtained from Shanghai Jihui Laboratory Animal Co. Ltd. Animals were housed and handled in a temperature-controlled environment with a 12-h light/12-h dark cycle. A total of 66 mice were assigned to 6 groups by randomization based on body weight.
Mice in Group 2 are intraperitoneally immunized with OVA (25 μg) emulsified in Imject alum (2.0 mg of Al[OH]3) on day 1. During this sensitization phase, the mice produce anti-OVA IgE antibodies, which bind IgE receptors on mast cells. After this sensitization, the mice are intratracheally challenged with OVA from day 8 today 14, resulting in OVA cross-linked IgE on mast cells and leading to degranulating mast cells. Mice then develop clinical features of asthma. The mice in the Group 1 normal control group were sensitized and challenged with […] (without OVA).
Mice in Group 1 and Group 2 were treated with vehicle for 7 days (po, qd, from day 8 to day 14). Mice in Group 3 were treated with 50 mg/kg Cpd. X for 8 days (iv, biw, day 1 and day 4). Mice in Group 4 were treated with 30 mg/kg Cpd. 4 for 7 days (po, qd, from day 8 to day 14). Mice in Group 5 were treated with 100 mg/kg Cpd. 4 for 7 days (po, qd, from day 8 to day 14). 3 mg/kg dexamethasone was used as positive control which was orally administered to mice in Group 6 for 7 days (qd, from day 8 to day 14). The protocols and procedures involving the care and use of animals were approved by the Institutional Animal Care and Use Committee (IACUC) at KCI (Suzhou, China).
Airway responsiveness was determined invasively based on lung resistance.
After challenge with aerosolized methacholine. Briefly, mice were challenged with methacholine aerosol in increasing concentrations (0, 6.25, 12.5, and 25 mg/mL in saline) on day 13 by using the noninvasive pulmonary function instrument. Data on lung resistance were continuously collected, and mean values were selected to express changes in airway function and regarded as one form of inflammation expression. Data are presented as the airway stenosis index (penh).
Twenty-four hours after the final OVA challenge (on day 15), mice were killed, and BAL cells were collected by means of slow injection of ice-cold PBS into the trachea, which was repeated 3 times. Numbers of cells in BAL fluid were counted with a chamber. Number of eosinophils in a total of 100 cells was counted under a microscope. Results are expressed as percentage of eosinophils of BAL fluid.
Twenty-four hours after the final OVA challenge (on day 15), mice were killed, and the serum was collected. The OVA-specific IgE levels were measured with the method of enzyme linked immunosorbent assay (ELISA) according to manufacturer protocol.
Twenty-four hours after the final OVA challenge (on day 15), mice were killed, and the lung tissue samples were collected and fixed in 4% paraformaldehyde. Then, they were embedded in paraffin and cut into […] sections for histopathological analysis. Lung sections were then stained with hematoxylin and eosin (H&E) to calculate the inflammatory changes. The histopathological score was evaluated microscopically in a blinded manner. Five arbitrarily selected fields of each mouse were photographed with an optical microscope and the images were determined and analyzed in detail. […]

[1] = system: IL-23 induced psoriasis model; assay: IL-23 induced psoriasis model in C57BL/6 mice; type: in vivo; details: Cpd. 4 30 mg/kg po qd day 1-14, compared with Vehicle (0.44 mm day 14)
Description: IL-23 stimulates and promotes differentiation of Th17 cells. IL-23 is a heterodimeric cytokine with two subunits. It drives the Th17 response by its binding and signaling through its receptor subunits. When the IL-23R is activated, it promotes the development of Th17 cells and the resulting production of cytokines such as IL-17A, IL-17F, and IL-22, all which are involved in mediating psoriasiform changes.
C57BL/6 mice (7-8 weeks old) were obtained from Vital River Laboratory Animal Technology Co., Ltd. Animals were housed and handled in a temperature-controlled environment with a 12-h light/12-h dark cycle. A total of 40 mice were assigned to 4 groups by randomization based on body weight.
The first day of IL-23 injection is considered as Day 1. Intradermal injection of 20 μL PBS containing 500 ng recombinant mouse IL-23 into the right ear of anesthetized mice using a 30-gauge needle every other day for 14 days (Day 1, Day 3, Day 5, Day 7, Day 9, Day 11, Day 13), 7 times in total. The G1 normal control group intradermal injected with 20 μL PBS.
Mice in Group 1 and Group 2 were treated with vehicle for 14 days (po, qd, from day 1 to day 14). Mice in Group 3 were treated with 30 mg/kg Cpd. 4 for 14 days (po, qd, from day 1 to day 14). […]
Ear thickness of mice was measured in Day 1, 3, 5, 7, 9, 11, 13 and Day 14. […]

[2] = day 15, Cpd. 4 30 and 100 mg/kg po qd, Cpd. X 50 mg/kg iv biw, dexamethasone 3 mg/kg po qd, compared with Vehicle

O=C(NS(=O)(=O)c1ccc(NC[C@H]2COCCO2)c([N+](=O)[O-])c1)c1ccc(N2CCN(CC3=C(c4ccc(Cl)cc4)CC4(CCC4)CC3)CC2)cc1Oc1cnc2[nH]ccc2c1 [Cpd. 4, (S)-N-((4-(((1,4-dioxan-2-yl)methyl)amino)-3-nitrophenyl)sulfonyl)-2-((1H-pyrrolo[2,3-b]pyridin-5-yl)oxy)-4-(4-((6-(4-chlorophenyl)spiro[3.5]non-6-en-7-yl)methyl)piperazin-1-yl)benzamide]
pathological score in lung tissues (H&E) (OVA induced asthma model; 30 mg/kg po qd day 8-14, day 15): 2.64±0.08
pathological score in lung tissues (H&E) (OVA induced asthma model; 100 mg/kg po qd day 8-14, day 15): 2.66±0.17
pathological score in lung tissues (in words) (OVA induced asthma model; Cpd. 4 and Cpd. X, compared with Vehicle): significantly ameliorated
percentage of eosinophils in BALF (OVA induced asthma model; [2]): downregulated markedly; also recorded: significantly downregulated
serum OVA-specific IgE (ELISA) (OVA induced asthma model; [2]): significantly reduced; also recorded: significantly decreased
airway stenosis index (penh), airway hyper-responsiveness (AHR) (OVA induced asthma model; methacholine challenge day 13, Cpd. 4 30 and 100 mg/kg po qd day 8-14, Cpd. X 50 mg/kg iv biw, dexamethasone 3 mg/kg po qd, compared with Vehicle): significant inhibitory activity; also recorded: significantly reduced
ear thickness [1]: significantly reducing the ear thickness; also recorded: significantly reduced
